Data published in US20260001914A1, “MACROCYCLIC PEPTIDES TARGETING KRAS” (Merck Sharp & Dohme LLC, priority 2022, published 2026).
*1 amine or outer side, *2 acyl side, *3 side chain or, on linkers, in order; H or OH if unused. Where a SMILES comes first, the peptide text is derived from it. Bridges are numbered along the chain shown (N, C = ends). [ ]: non-standard residue; d: D form. Phe(4-guanidino) = N=C(N)Nc1ccc(C[C@H](N)C(=O)O)cc1; X18 = CNC(=N)N(C)c1ccc(C[C@H](N[*:1])C(=O)[*:2])cc1; Ala(pyrimidin-5-yl) = N[C@@H](Cc1cncnc1)C(=O)O; NMe3Pal(6-Me) = CN[C@@H](Cc1ccc(C)nc1)C(=O)O; NMe3Pal(5-F) = CN[C@@H](Cc1cncc(F)c1)C(=O)O; Phe(4-CH2NH2) = NCc1ccc(C[C@H](N)C(=O)O)cc1; NMePhe(3-F) = CN[C@@H](Cc1cccc(F)c1)C(=O)O; 3Pal(6-OMe) = COc1ccc(C[C@H](N)C(=O)O)cn1; X3 = CN([C@@H](Cc1cncnc1)C(=O)[*:2])[*:1]; X30 = O=C([C@H](Cc1ncccc1F)N[*:1])[*:2]; Nle(5,5-F2) = CC(F)(F)CC[C@H](N)C(=O)O; Phe(4-Me) = Cc1ccc(C[C@H](N)C(=O)O)cc1; 1Nal = N[C@@H](Cc1cccc2ccccc12)C(=O)O; Ala(cPent) = N[C@@H](CC1CCCC1)C(=O)O; Phe(2-F) = N[C@@H](Cc1ccccc1F)C(=O)O; NMe3Pal = CN[C@@H](Cc1cccnc1)C(=O)O; X1 = O=C(C12CC(CN[*:1])(C1)C2)[*:2]; Ala(cPr) = N[C@@H](CC1CC1)C(=O)O; NMeF = CN[C@@H](Cc1ccccc1)C(=O)O; PhLac = O=C(O)[C@@H](O)Cc1ccccc1; 3Pal = N[C@@H](Cc1cccnc1)C(=O)O; Gly(N(CH2)3NH2) = NCCCNCC(=O)O; d(αMeC) = C[C@@](N)(CS)C(=O)O; Ahp(2) = CCCCC[C@H](N)C(=O)O; Cba = N[C@@H](CC1CCC1)C(=O)O; hLeu = CC(C)CC[C@H](N)C(=O)O; αMeC = C[C@](N)(CS)C(=O)O; NMeA = CN[C@@H](C)C(=O)O; Nle = CCCC[C@H](N)C(=O)O
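Further: signal taken as phospho-ERK over total ERK per well, both detected in one multiplex bead assay, EC50 from four-parameter logistic fit of dose-response curves.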

What follows are compounds tested against phosphorylation levels of ERK1/2 in AsPC-1 (homozygous KRAS-G12D) cells (Homo sapiens, UniProt P01116, G12D) (assay: Cellular phospho-ERK assay in AsPC-1 cells (Alpha Screen), assay medium without fetal bovine serum). Conditions: phospho-ERK AlphaScreen, 18 h.
Chain of phosphorylation levels of ERK1/2 in AsPC-1 (homozygous KRAS-G12D) cells (P01116 1-186 G12D): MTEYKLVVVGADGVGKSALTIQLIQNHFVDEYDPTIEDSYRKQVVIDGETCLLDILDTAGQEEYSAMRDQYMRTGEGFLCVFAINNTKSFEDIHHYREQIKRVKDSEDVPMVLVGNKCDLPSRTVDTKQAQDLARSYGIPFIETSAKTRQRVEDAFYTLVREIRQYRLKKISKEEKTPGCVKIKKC
Format: cell-based
Description: Assay plate was incubated at 37° C. 5% CO2 for the indicated length of time. […] Phosphorylated ERK and total ERK levels were detected by Alpha SureFire Ultra Multiplex pERK kit (PerkinElmer MPSU-PTERK) using 5 μL, acceptor bead mix and 5 μL donor bead mix, both prepared following the manufacturer's protocol. Plates were sealed using aluminum sealing tape (Costar 07-200-683) during incubation at ambient temperature with constant shaking at 300 rpm for 1 h (both acceptor and donor). Assay plates were read on a Envision Xcite Multilabel Reader (PerkinElmer 1040900) at ambient temperature, with emission at 535 nm (Total ERK) and emission at 615 nm (Phospho ERK). Ratio of pERK vs total ERK in each well was used as the final readout. Dose response curves and EC50 were analyzed using a 4-parameter logistic equation in GraphPad Prism software.
`CCCCC[C@@H]1NC(=O)[C@H](Cc2ccc(OC)cc2)NC(=O)[C@H](CC2CCC2)NC(=O)[C@H](Cc2ccc(N3CCC[C@H]3CN)cc2)NC(=O)[C@H](CCCNC(=N)N)NC(=O)[C@H](Cc2ccccc2)NC(=O)CSC[C@@](C)(C(N)=O)NC(=O)[C@H](Cc2ccccc2)N(C)C1=O` [compound 392, cyclo(F-R-Phe4SamPyrr-cBuA-TyrOMe-Ahp-NMeF-aMeCl-ClAc)] showed an EC50 greater than 50.8 µM.
In the case of `CCCCC[C@@H]1NC(=O)[C@H](Cc2ccc(OC)cc2)NC(=O)[C@H](CC2CCC2)NC(=O)[C@H](Cc2cccnc2)NC(=O)[C@H](C)N(C)C(=O)[C@H](Cc2ccccc2)OC(=O)C23CC(CNC(=O)[C@H](Cc4ccccc4)N(C)C1=O)(C2)C3` [compound 227, cyclo(FLac-NMeA-3Pal-cBuA-TyrOMe-Ahp-NMeF-amBCP)] (cyclo([3Pal][Cba]Y(Me)[Ahp(2)][NMeF][X1][PhLac][NMeA])), the EC50 is reported as 0.886 µM.
Work on `CCCCC[C@@H]1NC(=O)[C@H](Cc2ccc(OC)cc2)NC(=O)[C@H](CC2CCC2)NC(=O)[C@H](Cc2ccc(OC)nc2)NC(=O)[C@H](CCCNC(=N)N)NC(=O)[C@H](Cc2ccccc2)NC(=O)CSC[C@@](C)(C(N)=O)NC(=O)[C@H](Cc2ccccc2)N(C)C1=O` [compound 365, cyclo(F-R-40Me3Pal-cBuA-TyrOMe-Ahp-NMeF-aMeCl-ClAc)] ({CH2CO}-FR[3Pal(6-OMe)][Cba]Y(Me)[Ahp(2)][NMeF][αMeC]-NH2; thioether N-8) yielded an EC50 greater than 50.8 µM.
`CCCC[C@@H]1NC(=O)[C@H](Cc2cccnc2)NC(=O)[C@H](C)N(C)C(=O)[C@H](Cc2ccc(C)cc2)NC(=O)C23CC(CNC(=O)[C@H](Cc4cccnc4)N(C)C(=O)[C@H](CCCC)NC(=O)[C@H](Cc4ccccc4F)NC1=O)(C2)C3` [compound 170, cyclo(Phe4Me-NMeA-3Pal-Nle-Phe2F-Nle-NMe3Pal-amBCP)] (cyclo([3Pal][Nle][Phe(2-F)][Nle][NMe3Pal][X1][Phe(4-Me)][NMeA])) gave an EC50 of 37.2 µM.
`CCCCC[C@@H]1NC(=O)[C@H](Cc2ccc(OC)cc2)NC(=O)[C@H](CC2CCC2)NC(=O)[C@H](Cc2ccc(NC(=N)N)cc2)NC(=O)CN(CCCN)C(=O)[C@H](Cc2ccccc2)NC(=O)CSC[C@@](C)(C(N)=O)NC(=O)[C@H](Cc2ccccc2)N(C)C1=O` [compound 388, cyclo(F-NPrNH2G-Phe4Gn-cBuA-TyrOMe-Ahp-NMeF-aMeCl-ClAc)] ({CH2CO}-F[Gly(N(CH2)3NH2)][Phe(4-guanidino)][Cba]Y(Me)[Ahp(2)][NMeF][αMeC]-NH2; thioether N-8) showed an EC50 greater than 50.8 µM.
For `CCCCC[C@@H]1NC(=O)[C@H](Cc2ccc(OC)cc2)NC(=O)[C@H](CC2CCC2)NC(=O)[C@H](Cc2cccnc2)NC(=O)[C@H](CCCNC(=N)N)NC(=O)[C@H](Cc2ccccc2)NC(=O)CSC[C@@](C)(C(N)=O)NC(=O)[C@H](Cc2cncnc2)N(C)C1=O` [compound 376, cyclo(F-R-3Pal-cBuA-TyrOMe-Ahp-NMeAlaPyrim-aMeCl-ClAc)] ({CH2CO}-FR[3Pal][Cba]Y(Me)[Ahp(2)][X3][αMeC]-NH2; thioether N-8), the EC50 was greater than 50.8 µM.
For `CCCC[C@@H]1NC(=O)[C@H](Cc2ccc(CN)cc2)NC(=O)[C@H](CCCNC(=N)N)NC(=O)[C@H](Cc2cccc3ccccc23)NC(=O)CSC[C@](C)(C(=O)O)NC(=O)[C@H](Cc2ccccc2)N(C)C(=O)[C@H](CCCC)NC(=O)[C@H](Cc2ccc(O)cc2)NC1=O` [compound 144, cyclo(1Nal-R-Phe4CH2NH2-Nle-Y-Nle-NMeF-daMeC-ClAc)] ({CH2CO}-[1Nal]R[Phe(4-CH2NH2)][Nle]Y[Nle][NMeF][d(αMeC)]-OH; thioether N-8), the EC50 was greater than 50.8 µM.
Work on `CCCC[C@@H]1NC(=O)[C@H](Cc2cncnc2)NC(=O)[C@H](C)N(C)C(=O)[C@H](Cc2ccccc2)OC(=O)C23CC(CNC(=O)[C@H](Cc4ccccc4)N(C)C(=O)[C@H](CCCC)NC(=O)[C@H](Cc4ncccc4F)NC1=O)(C2)C3` [compound 229, cyclo(FLac-NMeA-PyrimAla-Nle-2Pal6F-Nle-NMeF-amBCP)] (cyclo([NMeA][Ala(pyrimidin-5-yl)][Nle][X30][Nle][NMeF][X1][PhLac])) yielded an EC50 of 48.7 µM.
`CCCC[C@@H]1NC(=O)[C@H](Cc2cncnc2)NC(=O)[C@H](C)N(C)C(=O)[C@H](Cc2ccccc2)OC(=O)C23CC(CNC(=O)[C@H](Cc4cccc(F)c4)N(C)C(=O)[C@H](CCCC)NC(=O)[C@H](Cc4ccccc4F)NC1=O)(C2)C3` [compound 174, cyclo(FLac-NMeA-PyrimAla-Nle-Phe2F-Nle-NMePhe3F-amBCP)] (cyclo([NMeA][Ala(pyrimidin-5-yl)][Nle][Phe(2-F)][Nle][NMePhe(3-F)][X1][PhLac])) was tested, and the EC50 was 0.734 µM.
In the case of `C[C@H]1C(=O)N[C@@H](Cc2cncnc2)C(=O)N[C@@H](CC2CCC2)C(=O)N[C@@H](Cc2ccccc2F)C(=O)N[C@@H](CCC(C)(F)F)C(=O)N(C)[C@@H](Cc2ccccc2)C(=O)NCC23CC(C2)(C3)C(=O)O[C@@H](Cc2ccccc2)C(=O)N1C` [compound 224, cyclo(FLac-NMcA-PyrimAla-cBuA-Phe2F-Nle3F2-NMeF-amBCP)] (cyclo([Cba][Phe(2-F)][Nle(5,5-F2)][NMeF][X1][PhLac][NMeA][Ala(pyrimidin-5-yl)])), the EC50 is reported as 0.542 µM.
`CC(C)CC[C@@H]1NC(=O)[C@H](Cc2ccccc2F)NC(=O)[C@H](CC2CCCC2)NC(=O)[C@H](Cc2cncnc2)NC(=O)[C@H](C)N(C)C(=O)[C@H](Cc2ccccc2)OC(=O)C23CC(CNC(=O)[C@H](Cc4ccccc4)N(C)C1=O)(C2)C3` [compound 135, cyclo(FLac-NMcA-PyrimAla-cPeA-Phe2F-hL-NMeF-amBCP)] (cyclo([Ala(cPent)][Phe(2-F)][hLeu][NMeF][X1][PhLac][NMeA][Ala(pyrimidin-5-yl)])) showed an EC50 of 0.285 µM.
For `CCCC[C@@H]1NC(=O)[C@H](Cc2ccc(N(C)C(=N)NC)cc2)NC(=O)[C@H](C)N(C)C(=O)[C@H](Cc2ccccc2)OC(=O)CSC[C@@](C)(C(N)=O)NC(=O)[C@H](Cc2cccnc2)N(C)C(=O)[C@H](CCCC)NC(=O)[C@H](Cc2ccccc2F)NC1=O` [compound 397, cyclo(FLac-NMeA-Phe4GnMeMe-Nle-Phe2F-Nle-NMe3Pal-aMeCl-ClAc)] ({CH2CO}-[PhLac][NMeA][X18][Nle][Phe(2-F)][Nle][NMe3Pal][αMeC]-NH2; thioether N-8), the EC50 was greater than 50.8 µM.
With `CC(C)CC[C@@H]1NC(=O)[C@H](Cc2ccccc2F)NC(=O)[C@H](CC2CC2)NC(=O)[C@H](Cc2cncnc2)NC(=O)[C@H](C)N(C)C(=O)[C@H](Cc2ccccc2)OC(=O)C23CC(CNC(=O)[C@H](Cc4cncc(F)c4)N(C)C1=O)(C2)C3` [compound 282, cyclo(FLac-NMeA-PyrimAla-cPrA-Phe2F-hL-NMe3Pal5F-amBCP)] (cyclo([Ala(cPr)][Phe(2-F)][hLeu][NMe3Pal(5-F)][X1][PhLac][NMeA][Ala(pyrimidin-5-yl)])) the EC50 was 2.49 µM.
`CCCC[C@@H]1NC(=O)[C@H](Cc2cccnc2)NC(=O)[C@H](C)N(C)C(=O)[C@H](Cc2cccnc2)NC(=O)C23CC(CNC(=O)[C@H](Cc4cccnc4)N(C)C(=O)[C@H](CCCC)NC(=O)[C@H](Cc4ccccc4F)NC1=O)(C2)C3` [compound 163, cyclo(3Pal-NMeA-3Pal-Nle-Phe2F-Nle-NMe3Pal-amBCP)] (cyclo([3Pal][NMeA][3Pal][Nle][Phe(2-F)][Nle][NMe3Pal][X1])) showed an EC50 greater than 50.8 µM.
`CCCC[C@@H]1NC(=O)[C@H](Cc2cccnc2)NC(=O)[C@H](C)N(C)C(=O)[C@H](Cc2ccccc2)OC(=O)C23CC(CNC(=O)[C@H](Cc4ccc(C)nc4)N(C)C(=O)[C@H](CCCC)NC(=O)[C@H](Cc4ccccc4F)NC1=O)(C2)C3` [compound 402, cyclo(FLac-NMeA-3Pal-Nle-Phe2F-Nle-NMe3Pal4Me-amBCP)] (cyclo([3Pal][Nle][Phe(2-F)][Nle][NMe3Pal(6-Me)][X1][PhLac][NMeA])) gave an EC50 of 9.95 µM.
